As a reminder, the IC50 is the concentration at which inhibition is half-maximal. Usually EC50 stands for the midpoint of the concentration-response curve. Lower therefore signals an effect from little substance.

This passage reports IC50 and EC50 results from patent US20260234163A1, “NOVEL COMPOUNDS AND USES THEREOF” (ACELINK THERAPEUTICS, INC., priority 2023, published 2026).

One assay addresses T1, Keap1-Nrf2 (Homo sapiens, UniProt Q14145).
T1 construct: purchased Sino Biological 11981-H20B
In words: Keap1-Nrf2 Binding Inhibitory Activity Assay (fluorescence polarization, Keap1_FL + FITC-Nrf2 peptide). The settings on record: Keap1-FL, 60 min room temperature. The method, then: Example 2.1 Keap1-Nrf2 Binding Inhibitory Activity Assay
• PerkinElmer EnVision 2105 Multilabel Reader • PerkinElmer FITC FP dual emission Label 2100-8060 • LABCYTE Echo 650 • Corning 384-well microplate #4514 • Keap1_FL, Sino Biological, catalog 11981-H20B • FITC-Nrf2 peptide, GL Biochem, Lot No: p210427-XQ892761
• a) Reference titration • 1. Keap1-Nrf2 Assay Buffer was prepared: 10 mM Tris-HCl pH 7.4, 150 mM NaCl, 50 mM EDTA, 0.05% Tween20, 0.1 mg/ml BSA (freshly add before use). • 2. 2.04× Tracer working solution was prepared: 2.04 nM FITC-Nrf2 peptide in Assay Buffer from 1 μM DMSO stock. • 3. 2× Protein working solution was prepared: 25 nM Keap1-FL in Assay Buffer. • 4. 100× compound working solutions with DMSO were prepared. Starting from 100 μM, serial 3-fold dilutions (10 points) were made by the Echo on the 384-well LDV microplate, then 200 nL of compounds, in duplicated wells, were transferred to a Corning 4514 plate. • 5. 9.8 μL per well of the Tracer working solution was added into the Corning 4514 plate. • 6. 10 μL per well of the Protein working solution was added into the Corning 4514 plate, except for the first two columns where Dilution Buffer were added to serve as “positive control”. • 7. The plate was incubated at room temperature for 60 min. • b) Read data on an EnVision with the following setting: Excitation Light (%): 84; Measurement Height: 9.4; G-Factor: 1; Detector Gain 1:220; Detector Gain 2: 220; Flash Number: 50.
All the Test Compounds were considered as having Keap1-Nrf2 binding inhibitory activity.
In general terms: Polarisation of emitted light reports the rotation of a fluorescent probe.

A further assay deals with Nrf2. In words: Nrf2 Cellular Assay (pGL4.37[luc2P/ARE/Hygro] luciferase reporter in HepG2 cells). It is filed as cell-based. The settings on record: ARE luciferase, 6 hours compound treatment. The method, then: Example 2.2 Nrf2 Cellular Assay
• 1. pGL4.37[luc2P/ARE/Hygro] vector was diluted to 25 ng/μL in Opti-MEM. • 2. Lipofectamine 3000 was added to a 2:1 lipid:DNA. The mixture was mixed by pipetting and incubate at room temperature for 15 minutes. • 3. HepG2 cells were cultured in complete medium (DMEM+10% FBS). • 4. Trypsin was added to the cells, which were filtered via a cell strainer to remove cell cluster, the cells were then quantified and diluted to 2×10^5 cells/ml in complete medium. • 5. The cells and plasmid were mixed, seeded to 384-well plate 50 μL per well (50 ng DNA/well) and incubated for 24 hours in a 37° C., 5% CO2 incubator.
• 1. Medium was removed from cells and replaced with 36 μL of DMEM+10% FBS per well. • 2. Incubated overnight in a 37° C., 5% CO2 incubator.
• 1. Test compound was serially diluted tin DMSO, and further diluted with DMEM (contains 10% FBS) to 10× final concentration. • 2. 4 μL of the 10× compound was added to each well, the plate was shaken for 10 sec on a plate shaker and incubated for 6 hours in a 37° C., 5% CO2 incubator.
• 1. Plates were removed from the 37° C., 5% CO2 incubator and allowed to cool to room temperature for approximately 15 minutes. • 2. 40 μL of the Glo Luciferase Assay System detection reagents were added, and the plate was shaken for 3 min and luminescence was measured.
On the technique in general: In a reporter assay the amount or activity of a reporter protein is the signal.

For the compound `Cc1c2ccc3c1nnn3C/C=C\COC1CCN(CC1)C(=O)N1CCc3ccc(cc3C1)C2CC(=O)O` (stereo not shown) [Compound 11, (Z)-2-(1^4-methyl-4-oxo-3^1,3^2,3^3,3^4-tetrahydro-1^1H-6-oxa-3(7,2)-isoquinolina-1(5,1)-benzo[d][1,2,3]triazola-5(1,4)-piperidinacyclodecaphan-8-en-2-yl)acetic acid], at Keap1-Nrf2, the concentration for half-maximal inhibition (IC50) is at most 100 nM. In the assay on Nrf2 (Homo sapiens, HepG2, 6 h), this compound came in with an EC50 of at most 10 µM.

With `O=C(O)CC1c2ccc3c(c2)CN(CC3)C(=O)N2CCC(CCCCCn3nnc4cc1cnc43)CC2` (single isomer, unassigned) [Compound 54], the IC50 on Keap1-Nrf2 is at most 100 nM. This compound showed an EC50 in the assay on Nrf2 of at most 10 µM.

For `Cc1ccc2cc1CN(C)C(=O)c1ccc(cc1)COCCCn1nnc3c(C)c(ccc31)C2CC(=O)O` (single isomer, unassigned) [Compound 17, 2-(1^4,3^4,5-trimethyl-6-oxo-1^1H-9-oxa-5-aza-1(5,1)-benzo[d][1,2,3]triazola-3(1,3), 7(1,4)-dibenzenacyclododecaphane-2-yl)acetic acid], the IC50 at Keap1-Nrf2 lay in the range of 1000 to 10000 nM. Besides, in the assay with Nrf2 (Homo sapiens, HepG2, 6 h), the EC50 was above 30 µM.

For `O=C(O)CC1c2ccc3c(c2)CN(CC3)C(=O)C2CCC(CCCCn3nnc4cc1cnc43)CC2` (stereo not shown) [Compound 56, 2-(4-oxo-31,32,33,34-tetrahydro-13H-3(7,2)-isoquinolina-1(6,3)-[1,2,3]triazolo[4,5-b]pyridina-5(1,4)-cyclohexanacyclononaphane-2-yl)acetic acid], at Keap1-Nrf2, the IC50 is at most 100 nM. This compound also displayed an EC50 in the assay on Nrf2 (Homo sapiens, HepG2, 6 h) of 10 to 30 µM.

Regarding `Cc1c2ccc3c1nnn3CCCCC1CCC(CC1)C(=O)N1CCc3ccc(cc3C1)C2CC(=O)O` (stereo not shown) [Compound 34], at Keap1-Nrf2, the IC50 is at most 100 nM. The EC50 in the assay on Nrf2 (Homo sapiens, HepG2, 6 h) was at most 10 µM.

In the case of `Cc1c2ccc3c1nnn3CCCCOC1CCN(CC1)C(=O)N1CCc3ccc(cc3C1)C2CC(=O)O` (stereo not shown) [Compound 10, 2-(1^4-methyl-4-oxo-3^1,3^2,3^3,3^4-tetrahydro-1^1H-6-oxa-3(7,2)-isoquinolina-1(5,1)-benzo[d][1,2,3]triazola-5(1,4)-piperidinacyclodecaphane-2-yl)acetic acid], the IC50 at Keap1-Nrf2 is at most 100 nM. This compound had an EC50 in the assay with Nrf2 (Homo sapiens, HepG2, 6 h) of at most 10 µM.

Consider `O=C(O)CC1c2ccc3c(c2)CN(CC3)C(=O)N2CCC(CCCCCn3nnc4c(Cl)c1ccc43)CC2` (stereo not shown) [Compound 30, 2-(1^4-chloro-4-oxo-3^1,3^2,3^3,3^4-tetrahydro-1^1H-3(7,2)-isoquinolina-1(5,1)-benzo[d][1,2,3]triazola-5(1,4)-piperidinacyclodecaphane-2-yl)acetic acid], for which the IC50 at Keap1-Nrf2 is at most 100 nM. Moreover, the EC50 in the assay with Nrf2 (Homo sapiens, HepG2, 6 h) was at most 10 µM.

For `Cc1cc2cc3c1CCN(C3)C(=O)c1ccc(cc1)COCCCn1nnc3c(C)c(ccc31)C2CC(=O)O` (stereo not shown) [Compound 4, 2-(1^4,3^5-dimethyl-4-oxo-3^1,3^2,3^3,3^4-tetrahydro-1^1H-7-oxa-3(7,2)-isoquinolina-1(5,1)-benzo[d][1,2,3]triazola-5(1,4)-benzenacyclodecaphane-2-yl)acetic acid], the IC50 on Keap1-Nrf2 was at most 100 nM. This compound had an EC50 in the assay with Nrf2 (Homo sapiens, HepG2, 6 h) of at most 10 µM.

Regarding `Cc1c2ccc3c1nnn3CCCCCN1CCN(CC1)C(=O)N1CCc3ccc(cc3C1)C2CC(=O)O` (stereo not shown) [Compound 5, 2-(carboxymethyl)-1^4-methyl-4-oxo-3^1,3^2,3^3,3^4-tetrahydro-1^1H-3(7,2)-isoquinolina-1(5,1)-benzo[d][1,2,3]triazola-5(4,1)-piperazin-1-iumacyclodecaphan-5^1-ium chloride], the IC50 on Keap1-Nrf2 was in the range of 100 to 1000 nM. For the same compound, in the assay on Nrf2 (Homo sapiens, HepG2, 6 h), the EC50 was above 30 µM.

With `Cc1c2ccc3c1nnn3CCOCCOc1ccc(cc1)S(=O)(=O)N1CCc3ccc(cc3C1)C2CC(=O)O` (stereo not shown) [Compound 1, tert-butyl 2-(1^4-methyl-4,4-dioxido-3^1,3^2,3^3,3^4-tetrahydro-1^1H-6,9-dioxa-4-thia-3(7,2)-isoquinolina-1(5,1)-benzo[d][1,2,3]triazola-5(1,4)-benzenacycloundecaphane-2-yl)acetic acid], the IC50 on Keap1-Nrf2 lay in the range of 100 to 1000 nM. For the same compound, the EC50 with Nrf2 (Homo sapiens, HepG2, 6 h) was above 30 µM.

In the case of `Cc1c2ccc3c1nnn3CCCCCC1CCC(CC1)C(=O)N(C)Cc1cccc(c1)C2CC(=O)O` (stereo not shown) [Compound 37], the IC50 on Keap1-Nrf2 was 100 to 1000 nM. Moreover, the EC50 in the assay on Nrf2 (Homo sapiens, HepG2, 6 h) is at most 10 µM.

For the compound `Cc1c2ccc3c1nnn3CCOCCN1CCN(CC1)C(=O)c1ccc3ccc(cc3c1)C2CC(=O)O` (stereo not shown) [Compound 8, 2-(1^4-methyl-4-oxo-1^1H-8-oxa-1(5,1)-benzo[d][1,2,3]triazola-5(1,4)-piperazina-3(2,7)-naphthalenacyclodecaphane-2-yl)acetic acid], at Keap1-Nrf2, the IC50 was in the range of 1000 to 10000 nM. In the assay on Nrf2 (Homo sapiens, HepG2, 6 h), the EC50 is above 30 µM.

Regarding `Cc1c2ccc3c1nnn3CCCCCC1CCN(CC1)C(=O)N1CCc3ccc(cc3C1)C2CC(=O)O` (stereo not shown) [Compound 14, 2-(1^4-methyl-4-oxo-3^1,3^2,3^3,3^4-tetrahydro-1^1H-3(7,2)-isoquinolina-1(5,1)-benzo[d][1,2,3]triazola-5(1,4)-piperidinacyclodecaphane-2-yl)acetic acid], on Keap1-Nrf2, the IC50 is at most 100 nM. The compound further had an EC50 in the assay on Nrf2 (Homo sapiens, HepG2, 6 h) of at most 10 µM.

For the compound `O=C(O)CC1c2ccc3c(c2)CN(CC3)C(=O)C2CCC(CCCCCn3nnc4cc1cnc43)CC2` (stereo not shown) [Compound 55, 2-(4-oxo-31,32,33,34-tetrahydro-13H-3(7,2)-isoquinolina-1(6,3)-[1,2,3]triazolo[4,5-b]pyridina-5(1,4)-cyclohexanacyclodecaphane-2-yl)acetic acid], the IC50 on Keap1-Nrf2 was at most 100 nM. Further, the EC50 in the assay on Nrf2 (Homo sapiens, HepG2, 6 h) was at most 10 µM.

`Cc1c2ccc3c1nnn3CCCOCC1CCN(CC1)C(=O)N1CCc3ccc(cc3C1)C2CC(=O)O` (stereo not shown) [Compound 12, 2-(1^4-methyl-4-oxo-3^1,3^2,3^3,3^4-tetrahydro-1^1H-7-oxa-3(7,2)-isoquinolina-1(5,1)-benzo[d][1,2,3]triazola-5(1,4)-piperidinacyclodecaphane-2-yl)acetic acid]: the IC50 on Keap1-Nrf2 was at most 100 nM. For the same compound, the EC50 with Nrf2 (Homo sapiens, HepG2, 6 h) was at most 10 µM.

On to `O=C(O)CC1c2ccc3c(c2)CN(CC3)C(=O)N2CCC(CCCCCn3nnc4cc1cnc43)CC2` (single isomer, unassigned) [Compound 53], for which, on Keap1-Nrf2, the IC50 was at most 100 nM. In the assay with Nrf2 (Homo sapiens, HepG2, 6 h), this compound registered an EC50 of 10 to 30 µM.

Take `Cc1c2ccc3c1nnn3CCOCCN1CCC(CC1)C(=O)N1CCc3ccc(cc3C1)C2CC(=O)O` (stereo not shown) [Compound 3, 2-(carboxymethyl)-1^4-methyl-4-oxo-3^1,3^2,3^3,3^4-tetrahydro-1^1H-8-oxa-3(7,2)-isoquinolina-1(5,1)-benzo[d][1,2,3]triazola-5(4,1)-piperidin-1-iumacyclodecaphan-5^1-ium chloride]: the IC50 at Keap1-Nrf2 lay within 1000 to 10000 nM. This compound came in with an EC50 in the assay on Nrf2 (Homo sapiens, HepG2, 6 h) above 30 µM.

For `Cc1c2ccc3c1nnn3CCCCCC1CCC(CC1)C(=O)N1CCc3ccc(cc3C1)C2CC(=O)O` (stereo not shown) [Compound 35], on Keap1-Nrf2, the IC50 is at most 100 nM. The same compound displayed an EC50 in the assay on Nrf2 (Homo sapiens, HepG2, 6 h) of at most 10 µM.

As to `Cc1c2ccc3c1nnn3CCCCCCCCN(C)C(=O)N1CCc3ccc(cc3C1)C2CC(=O)O` (stereo not shown) [Compound 40], the IC50 at Keap1-Nrf2 was at most 100 nM. The compound further showed an EC50 with Nrf2 (Homo sapiens, HepG2, 6 h) of 10 to 30 µM.

For `Cc1c2ccc3c1nnn3CCCCCN1CCC(CC1)C(=O)N1CCc3ccc(cc3C1)C2CC(=O)O` (stereo not shown) [Compound 2, 2-(carboxymethyl)-1^4-methyl-4-oxo-3^1,3^2,3^3,3^4-tetrahydro-1^1H-3(7,2)-isoquinolina-1(5,1)-benzo[d][1,2,3]triazola-5(4,1)-piperidin-1-iumacyclodecaphan-5^1-ium chloride], the IC50 on Keap1-Nrf2 fell in the range of 1000 to 10000 nM. Besides, the EC50 in the assay on Nrf2 (Homo sapiens, HepG2, 6 h) is above 30 µM.
